Measurements reported in ChEMBL document CHEMBL5149996, “Structure-Based Optimization and Discovery of M3258, a Specific Inhibitor of the Immunoproteasome Subunit LMP7 (β5i)” (J Med Chem, 2021).

Columns and labels:
[1] = Half life in iv dosed mouse; format: ADME, organism-based; conditions: in vivo
[2] = Clearance in iv dosed mouse; format: ADME, organism-based; conditions: in vivo
[3] = target: T1, Proteasome Macropain subunit MB1 (Homo sapiens, UniProt P28074); experiment: Inhibition of human 20S proteasome beta5 subunit using Suc-LLVY-AMC as substrate preincubated for 2 hrs followed by substrate addition and measured after 1 hr by fluorescence intensity assay
T1 sequence (P28074 whole entry): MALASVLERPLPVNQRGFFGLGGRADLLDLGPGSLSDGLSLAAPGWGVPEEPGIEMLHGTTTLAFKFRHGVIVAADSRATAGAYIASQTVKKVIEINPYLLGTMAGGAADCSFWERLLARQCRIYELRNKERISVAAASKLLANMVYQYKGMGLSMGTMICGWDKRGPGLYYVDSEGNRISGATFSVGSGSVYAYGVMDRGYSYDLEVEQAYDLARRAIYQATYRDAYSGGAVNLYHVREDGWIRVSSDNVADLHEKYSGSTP

[4] = Distribution coefficient, log D of the compound; format: physicochemical; conditions: octanol/water
[5] = target: T1, Proteasome Macropain subunit MB1; experiment: Inhibition of 20S proteasome beta5 subunit in human A549 cells using Suc-LLVY-luciferin substrate preincubated for 2 hrs followed by substrate addition and measured after 30 mins by luminometric analysis; format: cell-based
[6] = Intrinsic clearance in mouse liver microsomes measured per mg protein; format: ADME, Microsome; conditions: read-out: CLH
[7] = target: T2, Proteasome subunit beta type-8 (Homo sapiens, UniProt P28062); experiment: Inhibition of human 20S immunoproteasome beta-5i subunit using Suc-LLVY-AMC as substrate preincubated for 2 hrs followed by substrate addition and measured after 1 hr by fluorescence intensity assay
T2 sequence (P28062 whole entry): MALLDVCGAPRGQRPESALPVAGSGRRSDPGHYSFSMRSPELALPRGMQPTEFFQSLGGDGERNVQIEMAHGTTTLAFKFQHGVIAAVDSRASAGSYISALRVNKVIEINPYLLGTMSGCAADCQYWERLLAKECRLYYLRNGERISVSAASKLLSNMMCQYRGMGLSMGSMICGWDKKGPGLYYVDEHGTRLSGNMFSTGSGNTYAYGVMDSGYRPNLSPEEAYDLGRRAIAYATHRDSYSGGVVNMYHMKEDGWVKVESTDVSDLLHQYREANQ

[8] = Lipophilicity, log P of the compound; format: physicochemical; conditions: octanol/water
Homo sapiens [9] = species: Homo sapiens; experiment: Selectivity ratio of IC50 for inhibition of 20S proteasome beta5 subunit in human A549 cells to IC50 for inhibition of 20S immunoproteasome beta-5i subunit in human PBMC; format: cell-based
Homo sapiens [10] = species: Homo sapiens; experiment: Selectivity ratio of IC50 for inhibition of human 20S proteasome beta5 subunit to IC50 for inhibition of human 20S immunoproteasome beta-5i subunit
[11] = Volume of distribution at steady state in iv dosed mouse; format: ADME, organism-based; conditions: in vivo
[12] = target: T2, Proteasome subunit beta type-8; experiment: Inhibition of 20S immunoproteasome beta-5i subunit in human PBMC using Ac-ANW-luciferin substrate preincubated for 2 hrs followed by substrate addition and measured after 30 mins by luminometric analysis; format: cell-based
[13] = Intrinsic clearance in human liver microsomes measured per mg protein; format: ADME, Microsome
[14] = Oral bioavailability in mouse at 0.5 mg/kg; format: ADME, organism-based; conditions: in vivo
[15] = Kinetic solubility of the compound; format: physicochemical; conditions: read-out: Kinetic_solubility
[16] = target: T3, Proteasome subunit beta type-9 (Homo sapiens, UniProt P28065); experiment: Inhibition of human 20S immunoproteasome beta-1i subunit using (Ac-PAL)2R110 as substrate preincubated for 2 hrs followed by substrate addition and measured after 1 hr by fluorescence intensity assay
T3 sequence (P28065 whole entry): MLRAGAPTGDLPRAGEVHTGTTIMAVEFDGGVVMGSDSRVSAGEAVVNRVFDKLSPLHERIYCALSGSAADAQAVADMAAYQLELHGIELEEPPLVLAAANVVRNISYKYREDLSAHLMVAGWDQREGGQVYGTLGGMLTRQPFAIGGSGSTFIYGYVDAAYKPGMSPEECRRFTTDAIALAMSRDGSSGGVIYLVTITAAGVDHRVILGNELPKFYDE

[17] = target: T4, Proteasome subunit beta type-10 (Homo sapiens, UniProt P40306); experiment: Inhibition of human 20S immunoproteasome beta-2i subunit using Ac-RLR-AMC as substrate preincubated for 2 hrs followed by substrate addition and measured after 1 hr by fluorescence intensity assay
T4 sequence (P40306 whole entry): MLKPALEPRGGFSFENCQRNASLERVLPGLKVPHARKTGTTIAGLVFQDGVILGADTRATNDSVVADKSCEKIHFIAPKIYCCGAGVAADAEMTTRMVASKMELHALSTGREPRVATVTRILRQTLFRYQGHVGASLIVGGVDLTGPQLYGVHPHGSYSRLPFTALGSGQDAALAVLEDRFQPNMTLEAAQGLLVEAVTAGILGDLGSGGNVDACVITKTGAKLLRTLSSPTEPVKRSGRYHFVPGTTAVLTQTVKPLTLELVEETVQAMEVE

[18] = target: T5, Proteasome subunit beta type-6 (Homo sapiens, UniProt P28072); experiment: Inhibition of human 20S […] beta1 subunit using Ac-nLPnLD-AMC as substrate preincubated for 2 hrs followed by substrate addition and measured after 1 hr by fluorescence intensity assay
T5 sequence (P28072 whole entry): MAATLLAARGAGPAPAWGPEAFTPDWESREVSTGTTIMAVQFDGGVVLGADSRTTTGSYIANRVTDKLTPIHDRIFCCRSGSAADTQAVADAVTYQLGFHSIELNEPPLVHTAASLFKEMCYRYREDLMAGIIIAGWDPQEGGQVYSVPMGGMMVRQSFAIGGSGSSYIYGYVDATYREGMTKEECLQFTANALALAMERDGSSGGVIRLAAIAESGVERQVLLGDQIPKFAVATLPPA

[19] = target: T6, Proteasome subunit beta type-7 (Homo sapiens, UniProt Q99436); experiment: Inhibition of human 20S proteasome beta2 subunit using Ac-RLR-AMC as substrate preincubated for 2 hrs followed by substrate addition and measured after 1 hr by fluorescence intensity assay
T6 sequence (Q99436 whole entry): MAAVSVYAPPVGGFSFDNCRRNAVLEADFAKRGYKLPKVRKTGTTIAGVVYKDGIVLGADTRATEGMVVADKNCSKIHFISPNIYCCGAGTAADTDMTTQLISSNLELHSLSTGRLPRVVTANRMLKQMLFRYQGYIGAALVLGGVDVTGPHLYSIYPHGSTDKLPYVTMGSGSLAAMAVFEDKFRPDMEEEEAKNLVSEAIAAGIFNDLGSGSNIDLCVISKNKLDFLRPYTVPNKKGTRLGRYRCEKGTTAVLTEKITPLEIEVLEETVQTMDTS

[20] = Clearance in mouse hepatocytes measured per million of cells; format: ADME, cell-based, Hepatocyte; conditions: read-out: CLH
Hepatocyte [21] = experiment: Cytotoxicity against Wistar Han rat hepatocytes assessed as depletion of ATP content up to 500 uM incubated for 48 to 72 hrs by CellTiter-Glo luminescent assay; format: toxicity, cell-based; conditions: time 48-72 hrs
HepG2 = experiment: Cytotoxicity against human HepG2 cells assessed as depletion of ATP content up to 500 uM incubated for 48 to 72 hrs by CellTiter-Glo luminescent assay; format: toxicity, cell-based; conditions: hepg2, 500 µM, time 48-72 hrs
Hepatocyte [22] = experiment: Cytotoxicity against human primary hepatocytes assessed as depletion of ATP content up to 500 uM incubated for 48 to 72 hrs by CellTiter-Glo luminescent assay; format: toxicity, cell-based; conditions: time 48-72 hrs
[23] = Clearance in human hepatocytes measured per million of cells; format: ADME, cell-based, Hepatocyte; conditions: read-out: CLH

| SMILES | IC50 [3] [nM] | IC50 [5] [nM] | microsomal CLint [6] [µL/min/mg] | IC50 [7] [nM] | logP [8] | Ratio IC50 (Homo sapiens [10]) | IC50 [12] [nM] | Ratio IC50 (Homo sapiens [9]) | also measured |
| --- | --- | --- | --- | --- | --- | --- | --- | --- | --- |
| N#Cc1ccccc1CC(=O)N[C@@H](C[C@@H]1COc2ccccc21)B(O)O | 2400 | 2520 | 37 | 3.1 | 1.75 | 758 | 20 | 126 | half-life [1]: 42.6 min; clearance [2]: 32.8 mL/min/kg; logD [4]: 1.3; Vd ([11]; read-out: Vdss): 1.88 L/kg; CLH [13]: < 10 µL/min/mg; bioavailability [14]: 13%; solubility kinetic [15]: > 200 µM |
| CC(C)C[C@H](NC(=O)CNC(=O)c1cc(Cl)ccc1Cl)B(O)O |  |  |  | 2.9 |  |  |  |  | IC50 [16]: 2.7 nM; IC50 [17]: 4870 nM; IC50 [18]: 64 nM; IC50 [19]: > 30000 nM |
| O=C(N[C@@H](Cc1coc2ccccc12)B(O)O)[C@@H]1CCCO1 | 24000 | 15000 | 34 | 190 | 1.9 | 128 | 400 | 38 | hepatocyte CLint [20]: 99.7 µL/min/1e6 cells |
| CC(C)C[C@H](NC(=O)[C@H](Cc1ccccc1)NC(=O)c1cnccn1)B(O)O [BORTEZOMIB] |  |  |  |  |  |  |  |  | Activity (Hepatocyte [21]): Toxic; Activity (HepG2): Toxic; Activity (Hepatocyte [22]): Toxic |
| O=C(N[C@@H](Cc1coc2ccccc12)B(O)O)[C@H]1C[C@@H]2CC[C@H]1O2 | 6500 | 2440 | 16 | 15 | 2.25 | 444 | 19.6 | 124 | hepatocyte CLint [23]: 6.6 µL/min/1e6 cells; CLH [13]: < 10 µL/min/mg; hepatocyte CLint [20]: 15.9 µL/min/1e6 cells |

Second part, led by results:

| IC50 [3] [nM] | IC50 [5] [nM] | microsomal CLint [6] [µL/min/mg] | IC50 [7] [nM] | logP [8] | Ratio IC50 (Homo sapiens [10]) | IC50 [12] [nM] | SMILES | Ratio IC50 (Homo sapiens [9]) | also measured |
| --- | --- | --- | --- | --- | --- | --- | --- | --- | --- |
| 900 | 573 |  | 2.1 | 3.5 | 419 | 14 | O=C(Cc1ccccc1)N[C@@H](Cc1coc2ccccc12)B(O)O | 41 | t1/2 ([1]; iv): 22.2 min; CL ([2]; iv): 3 mL/min/kg; logD [4]: 1; Vdss ([11]; iv): 2.25 L/kg; bioavailability [14]: 37%; solubility kinetic [15]: > 200 µM |
| 41 |  |  | 1.7 |  | 24 |  | CCc1cccc(C[C@H](NC(=O)[C@H](Cc2ccccc2)NC(=O)c2cnccn2)B(O)O)c1 |  | IC50 [16]: 11 nM; IC50 [17]: 4000 nM; IC50 [18]: 8500 nM; IC50 [19]: > 30000 nM |
